According to US5393743A, “Erythromycin derivatives” (Abbott Laboratories, priority 1993, dated 1995):
Converted amounts (≈) assume the structure as drawn.

Experiments:
[1] = test system: Staphylococcus aureus A5177; test: In vitro antibacterial activity, agar dilution MIC; assay type: cell-based; details: Staphylococcus aureus A5177; BHI agar, 35°-37° C., 20 to 24 hours; read-out: MIC
Method: (§1) Representative compounds of the present invention were assayed in vitro for antibacterial activity as follows: Twelve petri dishes containing successive aqueous dilutions of the test compound mixed with 10 mL of sterilized Brain Heart Infusion (BHI) agar (Difco 0418-01-5) were prepared. Each plate was inoculated with 1:100 (or 1:10 for slow-growing strains, such as Micrococcus and Streptococcus) dilutions of up to 32 different microorganisms, using a Steers replicator block. The inoculated plates were incubated 35°-37° C. for 20 to 24 hours. In addition, a control plate, using BHI agar containing no test compound, was prepared and incubated at the beginning and end of each test.
(§2) An additional plate containing a compound having known susceptibility patterns for the organisms being tested and belonging to the same antibiotic class as the test compound was also prepared and incubated as a further control, as well as to provide test-to-test comparability. Erythromycin A was used for this purpose.
(§3) After incubation, each disk was read. The minimum inhibitory concentration (MIC) was defined as the lowest concentration of drug yielding no growth, a slight haze, or sparsely isolated colonies on the inoculum spot as compared to the growth control.

[2] = test system: Escherichia coli DC-2; test: In vitro antibacterial activity, agar dilution MIC; assay type: cell-based; details: DC2; Escherichia coli DC-2; BHI agar, 35°-37° C., 20 to 24 hours; read-out: MIC
Method: as §1, §2, §3

[3] = test system: Acinetobacter calcoaceticus CMX 669; test: In vitro antibacterial activity, agar dilution MIC; assay type: cell-based; details: CMX669; Acinetobacter calcoaceticus CMX 669; BHI agar, 35°-37° C., 20 to 24 hours; read-out: MIC
Method: as §1, §2, §3

[4] = test system: Staphylococcus aureus NCTC 10649; test: In vitro antibacterial activity, agar dilution MIC; assay type: cell-based; details: Staphylococcus aureus, NCTC10649
Method: as §1, §2, §3

[5] = test system: Providencia stuartii CMX 640; test: In vitro antibacterial activity, agar dilution MIC; assay type: cell-based; details: CMX640; Providencia stuartii CMX 640; BHI agar, 35°-37° C., 20 to 24 hours; read-out: MIC
Method: as §1, §2, §3

[6] = test system: Streptococcus pyogenes 2548 induc; test: In vitro antibacterial activity, agar dilution MIC; assay type: cell-based; details: Streptococcus pyogenes, 2548INDUC
Method: as §1, §2, §3

[7] = test system: Streptococcus bovis A5169; test: In vitro antibacterial activity, agar dilution MIC; assay type: cell-based; details: Streptococcus equinus, A5169
Method: as §1, §2, §3

[8] = test system: Streptococcus pyogenes EES61; test: In vitro antibacterial activity, agar dilution MIC; assay type: cell-based; details: Streptococcus pyogenes, EES61
Method: as §1, §2, §3

[9] = test system: Pseudomonas aeruginosa BMH10; test: In vitro antibacterial activity, agar dilution MIC; assay type: cell-based; details: Pseudomonas aeruginosa BMH10; BHI agar, 35°-37° C., 20 to 24 hours; read-out: MIC
Method: as §1, §2, §3

[10] = test system: Klebsiella pneumoniae ATCC 8045; test: In vitro antibacterial activity, agar dilution MIC; assay type: cell-based; details: ATCC8045; Klebsiella pneumoniae ATCC 8045; BHI agar, 35°-37° C., 20 to 24 hours; read-out: MIC
Method: as §1, §2, §3

[11] = test system: Pseudomonas aeruginosa 5263; test: In vitro antibacterial activity, agar dilution MIC; assay type: cell-based; details: Pseudomonas aeruginosa 5263; BHI agar, 35°-37° C., 20 to 24 hours; read-out: MIC
Method: as §1, §2, §3

[12] = test system: Staphylococcus epidermidis 3519; test: In vitro antibacterial activity, agar dilution MIC; assay type: cell-based; details: Staphylococcus epidermidis, 3519
Method: as §1, §2, §3

[13] = test system: Enterococcus faecium ATCC 8043; test: In vitro antibacterial activity, agar dilution MIC; assay type: cell-based; details: Enterococcus faecium, ATCC8043
Method: as §1, §2, §3

[14] = test system: Staphylococcus aureus A5278; test: In vitro antibacterial activity, agar dilution MIC; assay type: cell-based; details: Staphylococcus aureus A5278; BHI agar, 35°-37° C., 20 to 24 hours; read-out: MIC
Method: as §1, §2, §3

[15] = test system: Escherichia coli H560; test: In vitro antibacterial activity, agar dilution MIC; assay type: cell-based; details: Escherichia coli H560; BHI agar, 35°-37° C., 20 to 24 hours; read-out: MIC
Method: as §1, §2, §3

[16] = test system: Pseudomonas aeruginosa 2862; test: In vitro antibacterial activity, agar dilution MIC; assay type: cell-based; details: Pseudomonas aeruginosa 2862; BHI agar, 35°-37° C., 20 to 24 hours; read-out: MIC
Method: as §1, §2, §3

[17] = test system: Staphylococcus aureus CMX 642a; test: In vitro antibacterial activity, agar dilution MIC; assay type: cell-based; details: Staphylococcus aureus, CMX642A
Method: as §1, §2, §3

[18] = test system: Pseudomonas aeruginosa A5007; test: In vitro antibacterial activity, agar dilution MIC; assay type: cell-based; details: Pseudomonas aeruginosa A5007; BHI agar, 35°-37° C., 20 to 24 hours; read-out: MIC
Method: as §1, §2, §3

[19] = test system: Staphylococcus aureus ATCC 6538P; test: In vitro antibacterial activity, agar dilution MIC; assay type: cell-based; details: Staphylococcus aureus, ATCC6538P
Method: as §1, §2, §3

[20] = test system: Streptococcus agalactiae 508; test: In vitro antibacterial activity, agar dilution MIC; assay type: cell-based; details: Streptococcus agalactiae, 508
Method: as §1, §2, §3

[21] = test system: Escherichia coli Juhl; test: In vitro antibacterial activity, agar dilution MIC; assay type: cell-based; details: Escherichia coli Juhl; BHI agar, 35°-37° C., 20 to 24 hours; read-out: MIC
Method: as §1, §2, §3

[22] = test system: Micrococcus luteus 4698; test: In vitro antibacterial activity, agar dilution MIC; assay type: cell-based; details: Micrococcus luteus, 4698
Method: as §1, §2, §3

[23] = test system: Pseudomonas cepacia 2961; test: In vitro antibacterial activity, agar dilution MIC; assay type: cell-based; details: Burkholderia cepacia; Pseudomonas cepacia 2961; BHI agar, 35°-37° C., 20 to 24 hours; read-out: MIC
Method: as §1, §2, §3

[24] = test system: Streptococcus pyogenes 930 const; test: In vitro antibacterial activity, agar dilution MIC; assay type: cell-based; details: Streptococcus pyogenes 930 const; BHI agar, 35°-37° C., 20 to 24 hours; read-out: MIC
Method: as §1, §2, §3

[25] = test system: Staphylococcus aureus CMX 553; test: In vitro antibacterial activity, agar dilution MIC; assay type: cell-based; details: Staphylococcus aureus, CMX553
Method: as §1, §2, §3

[26] = test system: Escherichia coli KNK 437; test: In vitro antibacterial activity, agar dilution MIC; assay type: cell-based; details: KNK437; Escherichia coli KNK 437; BHI agar, 35°-37° C., 20 to 24 hours; read-out: MIC
Method: as §1, §2, §3

[27] = test system: Staphylococcus aureus 1775 Cipro R; test: In vitro antibacterial activity, agar dilution MIC; assay type: cell-based; details: 1775CIPROR; Staphylococcus aureus 1775 Cipro R; BHI agar, 35°-37° C., 20 to 24 hours; read-out: MIC
Method: as §1, §2, §3

[28] = test system: Enterobacter aerogenes ATCC 13048; test: In vitro antibacterial activity, agar dilution MIC; assay type: cell-based; details: Klebsiella aerogenes, ATCC13048; Enterobacter aerogenes ATCC 13048; BHI agar, 35°-37° C., 20 to 24 hours; read-out: MIC
Method: as §1, §2, §3

[29] = test system: Pseudomonas aeruginosa K799/WT; test: In vitro antibacterial activity, agar dilution MIC; assay type: cell-based; details: Pseudomonas aeruginosa K799/WT; BHI agar, 35°-37° C., 20 to 24 hours; read-out: MIC
Method: as §1, §2, §3

[30] = test system: Micrococcus luteus ATCC 9341; test: microbe, parasite or virus in culture; details: Micrococcus luteus, ATCC9341
Method: as §1, §2, §3

[31] = test system: Nocardia asteroides ATCC 9970; test: microbe, parasite or virus in culture; details: ATCC9970
Method: as §1, §2, §3

[32] = test system: Escherichia coli SS; test: microbe, parasite or virus in culture; details: Escherichia coli
Method: as §1, §2, §3

[33] = test system: Candida albicans CCH 442; test: microbe, parasite or virus in culture; details: CCH442
Method: as §1, §2, §3

[34] = test system: Mycobacterium smegmatis ATCC 114; test: In vitro antibacterial activity, agar dilution MIC; assay type: cell-based; details: Mycolicibacterium smegmatis, ATCC114, BHI agar, 35°-37° C., 20 to 24 hours
[35] = test system: Pseudomonas aeruginosa K799/61; test: In vitro antibacterial activity, agar dilution MIC; assay type: cell-based; details: BHI agar, 35°-37° C., 20 to 24 hours, read-out: MIC

CC[C@H]1OC(=O)[C@H](C)[C@@H](O[C@H]2C[C@](C)(F)[C@@H](OC)[C@H](C)O2)[C@H](C)[C@@H](O[C@@H]2O[C@H](C)C[C@H](N(C)C)[C@H]2O)[C@](C)(O)C[C@@H](C)C(=O)[C@H](C)[C@@H](O)[C@]1(C)O [Example 9, (3"s)--3"-Desmethoxy-3"-fluoro-4"-O-methylerythromycin A]
MIC [1]: 12.5 µg/mL (≈ 17 µM) | MIC [2]: > 100 µg/mL | MIC [3]: > 100 µg/mL | MIC [4]: 1.56 µg/mL (≈ 2.12 µM) | MIC [5]: > 100 µg/mL | MIC [6]: 3.1 µg/mL (≈ 4.21 µM) | MIC [7]: 0.2 µg/mL (≈ 0.272 µM) | MIC [8]: 0.39 µg/mL (≈ 0.53 µM) | MIC [9]: > 100 µg/mL | MIC [10]: > 100 µg/mL | MIC [11]: > 100 µg/mL | MIC [12]: 1.56 µg/mL (≈ 2.12 µM) | MIC [13]: 0.39 µg/mL (≈ 0.53 µM) | MIC [14]: > 100 µg/mL | MIC [15]: > 100 µg/mL | MIC [16]: > 100 µg/mL | MIC [17]: 1.56 µg/mL (≈ 2.12 µM) | MIC [18]: > 100 µg/mL | MIC [19]: 1.56 µg/mL (≈ 2.12 µM) | MIC [20]: 0.39 µg/mL (≈ 0.53 µM) | MIC [21]: > 100 µg/mL | MIC [22]: 0.39 µg/mL (≈ 0.53 µM) | MIC [23]: > 100 µg/mL | MIC [24]: > 100 µg/mL | MIC [25]: 1.56 µg/mL (≈ 2.12 µM) | MIC [26]: > 100 µg/mL | MIC [27]: > 100 µg/mL | MIC [28]: > 100 µg/mL | MIC [29]: > 100 µg/mL | MIC [30]: 0.2 µg/mL (≈ 0.272 µM) | MIC [31]: 0.2 µg/mL (≈ 0.272 µM) | MIC [32]: 1.56 µg/mL (≈ 2.12 µM) | MIC [33]: > 100 µg/mL | MIC [34]: 12.5 µg/mL (≈ 17 µM) | MIC [35]: 50 µg/mL (≈ 67.9 µM)
